From patent US10602743B2, “Method of inducing drought/salt tolerance using Bacillus megaterium” (Marrone Bio Innovations, Inc., priority 2012, dated 2020) come the findings set out here.

Read-outs that look alike come from different tables or passages of the source.

This assay concerns Bacillus megaterium strain H491. Nature of the assay: Chemical sensitivity, Biolog Phenotypic Microarray. Format: cell-based.
[1] abbreviates: Biolog Phenotypic Microarray, 25° C.

In the case of `CC1(C)S[C@@H]2[C@H](NC(=O)[C@H](NC(=O)N3CCNC3=O)c3ccccc3)C(=O)N2[C@H]1C(=O)O` [Azlocillin], the “H491 susceptible to compound” value under setting [1] is recorded as “susceptible”.
Same read-out and setting: as for `CC(C)(C)CC(C)(C)c1ccc(OCCOCC[N+](C)(C)Cc2ccccc2)cc1` [Benzethonium Chloride], the entry is “susceptible”; as for `OB(O)O` [Boric acid], “susceptible”.
For the compound `[Cl][Cd][Cl]` [Cadmium chloride], under setting [1], the “H491 susceptible to compound” value is “susceptible”.
Still for that read-out and setting: as for `Cn1c(=O)c2c(ncn2C)n(C)c1=O` [Caffeine], the entry is “susceptible”; as for `O=C1C2CC=CCC2C(=O)N1SC(Cl)(Cl)Cl` (stereo not shown) [Captan], “susceptible”; as for `CC1(C)S[C@@H]2[C@H](NC(=O)C(C(=O)O)c3ccccc3)C(=O)N2[C@H]1C(=O)O` (stereo partly shown) [Carbenicillin], “susceptible”.
Regarding `N#CC(C#N)=NNc1cccc(Cl)c1` [Carbonyl-cyanide m-chlorophenylhydrazone], the “H491 susceptible to compound” value under setting [1] is recorded as “susceptible”.
As for `Cc1nnc(SCC2=C(C(=O)O)N3C(=O)[C@@H](NC(=O)Cn4cnnn4)[C@H]3SC2)s1` [Cefazolin], the “H491 susceptible to compound” value under setting [1] was “susceptible”.
Still for that read-out and setting: the value for `CO[C@@]1(NC(=O)Cc2cccs2)C(=O)N2C(C(=O)O)=C(COC(N)=O)CS[C@@H]21` [Cefoxitin] was “susceptible”; that for `NC(=O)c1cc[n+](CC2=C(C(=O)O)N3C(=O)[C@@H](NC(=O)[C@@H](c4ccccc4)S(=O)(=O)[O-])[C@H]3SC2)cc1` [Cefsulodin] was “susceptible”.
Same read-out and setting: as for `CC(=O)OCC1=C(C(=O)O)N2C(=O)[C@@H](NC(=O)Cc3cccs3)[C@H]2SC1` [Cephalothin], the entry is “susceptible”; as for `[Cl-].[Cs+]` [Cesium chloride], “susceptible”.
Take `O=C(O)CCCc1ccc(N(CCCl)CCCl)cc1` [Chlorambucil]: the “H491 susceptible to compound” value under setting [1] is given as “susceptible”.
As for `CC(=O)O.CC(=O)O.NC(=N\CCCCCC/N=C(N)/N=C(\N)Nc1ccc(Cl)cc1)/N=C(\N)Nc1ccc(Cl)cc1` [Chlorhexidine diacetate], the “H491 susceptible to compound” value under setting [1] is recorded as “susceptible”.
On the same count and under the same terms, as for `CN(C)CCCN1c2ccccc2Sc2ccc(Cl)cc21` [Chlorpromazine], the entry is “susceptible”.
Regarding `CCn1nc(C(=O)O)c(=O)c2cc3c(cc21)OCO3` [Cinoxacin], under setting [1], the “H491 susceptible to compound” value is listed as “susceptible”.
In the case of `Cc1onc(-c2ccccc2Cl)c1C(=O)N[C@@H]1C(=O)N2[C@@H]1SC(C)(C)[C@@H]2C(=O)O` [Cloxacillin], the “H491 susceptible to compound” value under setting [1] is recorded as “susceptible”.
In the case of `[Cl-].[Cl-].[Co+2]` [Cobalt (II) chloride], the “H491 susceptible to compound” value under setting [1] is “susceptible”.
Same read-out and setting: as for `CN(C)c1ccc(C(=C2C=CC(=[N+](C)C)C=C2)c2ccc(N(C)C)cc2)cc1` [Crystal violet], the entry is “susceptible”; as for `N[C@@H]1CONC1=O` [D-Cycloserine], “susceptible”.
Still for that read-out and setting: the value for `N[C@H](CO)C(=O)O` [D-Serine] was “susceptible”.
For the compound `CN(C)[C@@H]1C(O)=C(C(N)=O)C(=O)[C@@]2(O)C(O)=C3C(=O)c4c(O)ccc(Cl)c4[C@@H](O)[C@H]3C[C@@H]12` [Demeclocycline], under setting [1], the “H491 susceptible to compound” value is listed as “susceptible”.
Turning to `CN(C)C(=O)/N=N/C(=O)N(C)C` [Diamide], the “H491 susceptible to compound” value under setting [1] is on record as “susceptible”.
The same measure, in the same setting: the value for `CN(C)S(=O)(=O)N(SC(F)(Cl)Cl)c1ccccc1` [Dichlofluanid] was “susceptible”.
On to `CCCCCCCCCCCC[N+](C)(C)C.[Br-]` [Dodecyltrimethyl ammonium bromide], for which, under setting [1], the “H491 susceptible to compound” value is “susceptible”.
`CCCCCCCCCCCC[N+](C)(C)CCOc1ccccc1` [Domiphen bromide]: the “H491 susceptible to compound” value under setting [1] is “susceptible”.
In the case of `O=C(O)CN(CCN(CC(=O)O)CC(=O)O)CC(=O)O` [EDTA], the “H491 susceptible to compound” value was “susceptible”.
